Results as given in patent publication US11707440B2 (priority 2017, dated 2023).

Experiments:
[1] = test system: subjects with MDD at imminent risk for suicide; assay: SIBAT clinical global judgment of suicide risk, […]2001; assay type: in vivo, human; settings: Baseline(DB), predose Day 1; ITT analysis set
Excerpt: The clinical global judgment of suicide risk (Module 8) summarizes clinician overall judgment of suicide risk as derived from information gathered from the full SIBAT tool. It operates like numerous other CGI-severity scales that have been used in other psychiatric studies. Change in the clinical global judgment of suicide risk is designed to directly identify clinical meaningful changes in suicidal ideation and to permit classification of suicide risk.
The analysis of the change in SIBAT score was based on an ANCOVA model on ranks of change in SIBAT with treatment, antidepressant therapy, and analysis center as factors, and baseline value (unranked) as a covariate. There was a significant difference (two-sided […]) between the two treatment groups when comparing the mean rank of change from baseline at Day 1: 4-hours postdose in favor of esketamine 84 mg See, Table 58. See, FIG. 39. […] This difference was not evident at the Day 25 DB endpoint. See, FIG. 40, which is based on LOCF data and analyzed using Cochran-Mantel-Haenszel test controlling for analysis center and antidepressant therapy.

[2] = test system: subjects with TRD; assay type: in vivo, human; settings: among the 76 subjects who discontinued intranasal esketamine
Excerpt: The efficacy and safety analyses are based on the full (IND) analysis set and the full (OP/MA) analysis set. The full (IND) analysis set is defined as all subjects who receive at least 1 dose of intranasal study medication or 1 dose of oral antidepressant in the open-label IND phase (for direct-entry and transferred-entry non-responder subjects). The full (OP/MA) analysis is defined as all subjects who receive at least 1 dose of intranasal study medication or 1 dose of oral antidepressant in the OP/MA phase. Safety variables include cognition function over time, treatment-emergent adverse events (TEAEs), including TEAEs of special interest, vital signs over time, Clinician-Administered Dissociative Symptom Scale (CADDS) over time, and Modified Observer's Assessment of Alertness/Sedation (MOAA/S) score≤3. Efficacy variables include the MADRS which consists of 10 items that cover all the core depressive symptoms: each item is scored from 0 (symptom is not present or is normal) to 6 (severe or continuous presence of the symptom). A total score (0 to 60) is calculated by summing the scores of all 10 items. A higher score represents a more severe condition.
Overall, 90.1% of subjects experienced at least one TEAE in the IND and OP/MA phases.

[3] = test system: glutamate NMDA receptor; settings: in vitro; cited from earlier work
[4] = test system: female Sprague-Dawley rats, PCG/RSC of the brain; assay: Single dose neurotoxicity study, intranasal instillation; settings: single dose, 72 mg
Experimental: Esketamine HCl was instilled intranasally at doses of 0 (vehicle), 36, 54 or 72 mg (expressed as esketamine base) to female rats on a single day. The dose levels were obtained by 2, 3 or 4 subsequent intranasal instillations, respectively, into both nostrils at a volume of 50 μL per nostril. At each instillation, the second nostril was dosed immediately after the first nostril. The interval between subsequent instillations into both nostrils was 5 minutes.
The vehicle control group received 4 subsequent intranasal instillations of the vehicle into both nostrils (50 μL per nostril) with 5-minute intervals.
The injection volume was 5 mL/kg.
The vehicle- and the 36 and 54 mg-dosed groups consisted of 24 animals per group, while the 72 mg-dosed and positive control groups involved 30 animals per group. Four satellite animals were added to the esketamine HCl-dosed groups of main study animals for toxicokinetic (TK) purposes. In these animals the plasma exposure to esketamine was measured on the day of dosing at various time points up to and including 24 hours after the first instillation.
Prior to the perfusion, rats were anesthetized with isoflurane. After injection of 0.1 ml heparin, the blood of the rat was flushed out with a physiological saline solution by intraarterial insertion of a needle in the abdominal aorta. Thereafter the rat was perfused with glutaraldehyde 3% in potassium phosphate 0.09M and 1.4% sucrose. Due to logistic constraints at maximum 30 animals could undergo the whole-body perfusion procedure on a given day. Therefore, a staggered start of treatment was applied to all 5 groups of main study animals. Consequently, subgroups of 4 main study animals of the vehicle- and 36 and 54 mg-dosed groups, and 5 main study animals of the 72 mg-dosed and positive control groups, were dosed on 6 consecutive days, respectively.
The vehicle control, positive control, and esketamine HCl-dosed animals were sacrificed at either 48 hours (i.e., the first 12 or 15 rats per group) or 96 hours after the dose administration time (i.e., the last 12 or 15 rats per group). The brain tissue of the vehicle control-, positive control- and esketamine HCl-treated rats were processed at the same time and handled in the same way in batches of 4 or 5 animals per group.
Furthermore, clinical observations were recorded for the esketamine HCl-dosed rats on the day of dosing at 0 till 5 minutes, 15 and 30 minutes, and at 1, 2, 4, 6 hours post-dose, at the end of the working day and at 24 hours after the last instillation in the single dose study and on the first day of dosing, after one week and towards the end of the dosing period in the repeated dose study. Body weight and body weight gain were measured daily. Food consumption was measured weekly in the repeated dose study.
On the day of terminal kill, a complete physical examination was performed on the rats in fasted condition and body weight was recorded. The surviving animals were anaesthetized by inhalation of an isoflurane (IsoFlo® Zoetis, Belgium)/oxygen mixture and killed by exsanguination via the carotid artery. […] All terminally killed rats or those killed pre-terminally were perfused with 4% paraformaldehyde in the single dose study and with glutaraldehyde 3% in potassium phosphate buffer 0.09 M with 1.4% sucrose in the repeated dose study.
Brain tissue was sampled and processed routinely. The trimmed and embedded tissue was sectioned and stained with hematoxylin-eosin (HE). Histoprocessing and staining were carried out in three batches of 4 animals per group (each batch thus containing 4 animals from vehicle control-, positive control- and the three esketamine HCl-treated groups). In the single dose study duplicate brain sections were stained with Fluoro-Jade (FJ).
All tissues showing gross abnormalities were examined macroscopically.

[5] = test system: adult subjects with TRD; assay type: in vivo, human
Experimental: Blood pressure and pulse/heart rate measurements were assessed supine with a completely automated device. Manual techniques were used only if an automated device is not available. Blood pressure and pulse/heart rate measurements were preceded by at least 5 minutes of rest in a quiet setting without distractions (e.g., television, cell phones).
Transient blood pressure increases peaked for the esketamine group at approximately 40 minutes post dose and returned to normal range at 90 minutes. […] The maximum mean increase (across all dosing days) in diastolic BP were 8.1 in the esketamine group and 4.5 in the active comparator group. FIGS. 7 and 8 present the means for measured blood pressure over time by treatment group in the double-blind phase.

[6] = test system: subjects with TRD; settings: human, in vivo, other: intranasal
Experimental: The Clinician Administered Dissociative States Scale (CADSS) was measured prior to the start of each dose, at 40 minutes, and 1.5 hours postdose.

[7] = test system: subjects with TRD; design: species or system human; settings: in vivo
Excerpt: Subjects with and without hypertension experienced similar magnitude of mean increases of SBP and DBP.
The maximum mean increases (across all dosing days within the respective phase) in diastolic BP were 5.6 and 5.2 in the IND and OP/MA phases, respectively.

[8] = human, in vivo, other: intranasal

SMILES | SIBAT Clinical Global Judgment of Suicide Risk, Median (Range) [1] | Subjects with a discontinuation AE considered related (possibly, probably, or very likely) to esketamine [2] | Greater affinity for the glutamate NMDA receptor than R-ketamine [3] | AUC-based safety margin compared with the maximum 84 mg clinical dose [4] | Cmax-based safety margin compared with the maximum 84 mg clinical dose [4] | Maximum mean increase in diastolic BP (across all dosing days) ([5]; double-blind phase) | Time of peak of transient blood pressure increases [5, 8] | Time of return of blood pressure to normal range [5, 8] | Time to resolution of dissociative and perceptual change symptoms (CADSS) [6] | Subjects who discontinued intranasal esketamine due to increased blood pressure [7]
CN[C@]1(c2ccccc2Cl)CCCCC1=O [Esketamine 84 mg] | 6.0 (5; 6) |  |  |  |  |  |  |  |  | 
CN[C@]1(c2ccccc2Cl)CCCCC1=O [esketamine, (S)-2-(2-chlorophenyl)-2-(methylamino)cyclohexanone] |  | 51 subjects | 3 to 4 fold | ~86 fold | approximately 60 fold | 8.1 | approximately 40 minutes post dose | 90 min | ≤ 1.5 hours postdose | Six
